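Protocol summary: plate cells (96-well), add compound at 5 concentrations, incubate 48 h, interpolate endpoints linearly. GI50 marks 50% less growth. The concentration for full growth arrest is given as TGI.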
Tests used:
Test in all cases: inhibition of tumour cell growth, NCI panel, 48 h
DU-145 prostate = tested on: DU-145 prostate
COLO 205 colon = tested on: COLO 205 colon
SW-620 colon = tested on: SW-620 colon
OVCAR-8 ovarian = tested on: OVCAR-8 ovarian
T-47D breast = tested on: T-47D breast
SK-MEL-5 melanoma = tested on: SK-MEL-5 melanoma
M14 melanoma = tested on: M14 melanoma
SF-539 CNS = tested on: SF-539 CNS
HOP-92 NSCLC = tested on: HOP-92 NSCLC
SN12C renal = tested on: SN12C renal
SF-295 CNS = tested on: SF-295 CNS
SNB-19 CNS = tested on: SNB-19 CNS
UACC-257 melanoma = tested on: UACC-257 melanoma
PC-3 prostate = tested on: PC-3 prostate
MDA-MB-231 breast = tested on: MDA-MB-231 breast
SK-MEL-2 melanoma = tested on: SK-MEL-2 melanoma
BT-549 breast = tested on: BT-549 breast
NCI-H460 lung = tested on: NCI-H460 lung
SR leukemia = tested on: SR leukemia
MOLT-4 leukemia = tested on: MOLT-4 leukemia
MDA-MB-468 breast = tested on: MDA-MB-468 breast
OVCAR-5 ovarian = tested on: OVCAR-5 ovarian
OVCAR-3 ovarian = tested on: OVCAR-3 ovarian
HCT-116 colon = tested on: HCT-116 colon
CAKI-1 renal = tested on: CAKI-1 renal
A498 renal = tested on: A498 renal
TK-10 renal = tested on: TK-10 renal
UACC-62 melanoma = tested on: UACC-62 melanoma
RXF 393 renal = tested on: RXF 393 renal
SNB-75 CNS = tested on: SNB-75 CNS
HCC-2998 colon = tested on: HCC-2998 colon
ACHN renal = tested on: ACHN renal
UO-31 renal = tested on: UO-31 renal
KM12 colon = tested on: KM12 colon
K-562 leukemia = tested on: K-562 leukemia
OVCAR-4 ovarian = tested on: OVCAR-4 ovarian
U251 CNS = tested on: U251 CNS
SK-MEL-28 melanoma = tested on: SK-MEL-28 melanoma
HCT-15 colon = tested on: HCT-15 colon
HOP-62 NSCLC = tested on: HOP-62 NSCLC
A549 NSCLC = tested on: A549 NSCLC
SK-OV-3 ovarian = tested on: SK-OV-3 ovarian
IGROV1 ovarian = tested on: IGROV1 ovarian
NCI-H226 lung = tested on: NCI-H226 lung
MDA-MB-435 = tested on: MDA-MB-435
HS 578T breast = tested on: HS 578T breast
CCRF-CEM leukemia = tested on: CCRF-CEM leukemia
786-0 renal = tested on: 786-0 renal
NCI-H522 lung = tested on: NCI-H522 lung
HL-60(TB) leukemia = tested on: HL-60(TB) leukemia
SF-268 CNS = tested on: SF-268 CNS
EKVX NSCLC = tested on: EKVX NSCLC
RPMI-8226 leukemia = tested on: RPMI-8226 leukemia
MALME-3M melanoma = tested on: MALME-3M melanoma

`COC(=O)C[C@](O)(CCC(C)C)C(=O)O[C@@H]1C(OC)=C[C@]23CCCN2CCc2cc4c(cc2[C@H]13)OCO4` gave a GI50 (DU-145 prostate) of 0.145 µM, a TGI (DU-145 prostate) of 0.645 µM and a GI50 (COLO 205 colon) of 0.0916 µM. The TGI (COLO 205 colon) was 0.397 µM, the GI50 (SW-620 colon) was 0.0575 µM and the TGI (SW-620 colon) was 0.473 µM. The GI50 (OVCAR-8 ovarian) was 0.13 µM, the TGI (OVCAR-8 ovarian) was 0.787 µM and the GI50 (T-47D breast) was 0.191 µM. For the same molecule, the TGI (T-47D breast) was 0.919 µM, the GI50 (SK-MEL-5 melanoma) was 0.0431 µM and the TGI (SK-MEL-5 melanoma) was 0.181 µM. For the same molecule, the GI50 (M14 melanoma) was 0.0504 µM, the TGI (M14 melanoma) was 0.196 µM and the GI50 (SF-539 CNS) was 0.023 µM. For the same molecule, the TGI (SF-539 CNS) was 0.058 µM, the GI50 (HOP-92 NSCLC) was 0.208 µM and the TGI (HOP-92 NSCLC) was 0.724 µM. It also gave a GI50 (SN12C renal) of 0.259 µM, a TGI (SN12C renal) of 1.11 µM and a GI50 (SF-295 CNS) of 0.135 µM. The TGI (SF-295 CNS) was 0.662 µM, the GI50 (SNB-19 CNS) was 0.036 µM and the TGI (SNB-19 CNS) was 0.305 µM. The GI50 (UACC-257 melanoma) was 0.194 µM, the TGI (UACC-257 melanoma) was 0.81 µM and the GI50 (PC-3 prostate) was 0.0521 µM. For the same molecule, the TGI (PC-3 prostate) was 0.756 µM, the GI50 (MDA-MB-231 breast) was 0.247 µM and the TGI (MDA-MB-231 breast) was 0.69 µM. For the same molecule, the GI50 (SK-MEL-2 melanoma) was 0.216 µM, the TGI (SK-MEL-2 melanoma) was 0.642 µM and the GI50 (BT-549 breast) was 0.0907 µM. The TGI (BT-549 breast) was 0.412 µM, the GI50 (NCI-H460 lung) was 0.0212 µM and the TGI (NCI-H460 lung) was 0.082 µM. It also gave a GI50 (SR leukemia) of 0.0182 µM, a TGI (SR leukemia) of 0.0572 µM and a GI50 (MOLT-4 leukemia) of 0.0202 µM. The TGI (MOLT-4 leukemia) was 0.14 µM, the GI50 (MDA-MB-468 breast) was 0.0255 µM and the TGI (MDA-MB-468 breast) was 0.115 µM. The GI50 (OVCAR-5 ovarian) was 0.17 µM, the TGI (OVCAR-5 ovarian) was 0.596 µM and the GI50 (OVCAR-3 ovarian) was 0.039 µM. The TGI (OVCAR-3 ovarian) was 0.306 µM, the GI50 (HCT-116 colon) was 0.0363 µM and the TGI (HCT-116 colon) was 1.05 µM. The GI50 (CAKI-1 renal) was 0.179 µM, the TGI (CAKI-1 renal) was 0.988 µM and the GI50 (A498 renal) was 0.0173 µM. The TGI (A498 renal) was 0.163 µM, the GI50 (TK-10 renal) was 0.136 µM and the TGI (TK-10 renal) was 1.09 µM. It also gave a GI50 (UACC-62 melanoma) of 0.144 µM, a TGI (UACC-62 melanoma) of 0.603 µM and a GI50 (RXF 393 renal) of 0.0399 µM. It also gave a TGI (RXF 393 renal) of 0.285 µM, a GI50 (SNB-75 CNS) of 0.156 µM and a TGI (SNB-75 CNS) of 0.417 µM. For the same molecule, the GI50 (HCC-2998 colon) was 0.0269 µM, the TGI (HCC-2998 colon) was 0.129 µM and the GI50 (ACHN renal) was 0.0402 µM. For the same molecule, the TGI (ACHN renal) was 0.272 µM, the GI50 (UO-31 renal) was 0.0498 µM and the TGI (UO-31 renal) was 0.449 µM. It also gave a GI50 (KM12 colon) of 0.0568 µM, a TGI (KM12 colon) of 0.546 µM and a GI50 (K-562 leukemia) of 0.0289 µM. It also gave a TGI (K-562 leukemia) of 0.116 µM, a GI50 (OVCAR-4 ovarian) of 0.0395 µM and a TGI (OVCAR-4 ovarian) of 0.354 µM. The GI50 (U251 CNS) was 0.0392 µM, the TGI (U251 CNS) was 4.02 µM and the GI50 (SK-MEL-28 melanoma) was 0.0706 µM. For the same molecule, the TGI (SK-MEL-28 melanoma) was 0.352 µM, the GI50 (HCT-15 colon) was 0.0364 µM and the TGI (HCT-15 colon) was 1.27 µM. It also gave a GI50 (HOP-62 NSCLC) of 0.244 µM, a TGI (HOP-62 NSCLC) of 1.48 µM and a GI50 (A549 NSCLC) of 0.0521 µM. For the same molecule, the TGI (A549 NSCLC) was 10.7 µM, the GI50 (SK-OV-3 ovarian) was 0.159 µM and the TGI (SK-OV-3 ovarian) was 1.62 µM. The GI50 (IGROV1 ovarian) was 0.0647 µM, the TGI (IGROV1 ovarian) was 0.525 µM and the GI50 (NCI-H226 lung) was 0.0317 µM. For the same molecule, the TGI (NCI-H226 lung) was 0.351 µM, the GI50 (MDA-MB-435) was 0.101 µM and the TGI (MDA-MB-435) was 0.351 µM. The GI50 (HS 578T breast) was 0.138 µM, the TGI (HS 578T breast) was 0.545 µM and the GI50 (CCRF-CEM leukemia) was 0.0344 µM. For the same molecule, the TGI (CCRF-CEM leukemia) was 0.431 µM, the GI50 (786-0 renal) was 0.104 µM and the TGI (786-0 renal) was 0.544 µM. For the same molecule, the GI50 (NCI-H522 lung) was 0.0212 µM, the TGI (NCI-H522 lung) was 0.0653 µM and the GI50 (HL-60(TB) leukemia) was 0.0143 µM. It also gave a TGI (HL-60(TB) leukemia) of 0.0655 µM, a GI50 (SF-268 CNS) of 0.192 µM and a TGI (SF-268 CNS) of 0.709 µM. It also gave a GI50 (EKVX NSCLC) of 0.116 µM, a TGI (EKVX NSCLC) of 0.775 µM and a GI50 (RPMI-8226 leukemia) of 0.0337 µM. The TGI (RPMI-8226 leukemia) was 0.132 µM, the GI50 (MALME-3M melanoma) was 0.0201 µM and the TGI (MALME-3M melanoma) was 0.0684 µM.

Reference: PubChem BioAssay (NCI)
